Measured values from PubChem BioAssay (NCI).
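The compound was tested at five concentrations on cells cultured in 96-well plates, with a 48-hour exposure period. GI50: concentration for 50% inhibition of growth. TGI: concentration producing complete growth inhibition.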

What was measured:
Assay in all cases: inhibition of tumour cell growth, NCI panel, 48 h
OVCAR-3 ovarian = system: OVCAR-3 ovarian
SNB-75 CNS = system: SNB-75 CNS
SK-OV-3 ovarian = system: SK-OV-3 ovarian
ACHN renal = system: ACHN renal
SF-268 CNS = system: SF-268 CNS
NCI-H23 lung = system: NCI-H23 lung
SK-MEL-2 melanoma = system: SK-MEL-2 melanoma
MDA-MB-435 = system: MDA-MB-435
MALME-3M melanoma = system: MALME-3M melanoma
A549 NSCLC = system: A549 NSCLC
UACC-257 melanoma = system: UACC-257 melanoma
CCRF-CEM leukemia = system: CCRF-CEM leukemia
SW-620 colon = system: SW-620 colon
KM12 colon = system: KM12 colon
MOLT-4 leukemia = system: MOLT-4 leukemia
MDA-MB-231 breast = system: MDA-MB-231 breast
COLO 205 colon = system: COLO 205 colon
BT-549 breast = system: BT-549 breast
HOP-62 NSCLC = system: HOP-62 NSCLC
786-0 renal = system: 786-0 renal
NCI-H226 lung = system: NCI-H226 lung
HT29 colon = system: HT29 colon
HL-60(TB) leukemia = system: HL-60(TB) leukemia
UO-31 renal = system: UO-31 renal
LOX IMVI melanoma = system: LOX IMVI melanoma
CAKI-1 renal = system: CAKI-1 renal
OVCAR-8 ovarian = system: OVCAR-8 ovarian
HCC-2998 colon = system: HCC-2998 colon
OVCAR-5 ovarian = system: OVCAR-5 ovarian
HCT-15 colon = system: HCT-15 colon
IGROV1 ovarian = system: IGROV1 ovarian
UACC-62 melanoma = system: UACC-62 melanoma
OVCAR-4 ovarian = system: OVCAR-4 ovarian
SNB-19 CNS = system: SNB-19 CNS
SR leukemia = system: SR leukemia
SF-539 CNS = system: SF-539 CNS
SK-MEL-5 melanoma = system: SK-MEL-5 melanoma
MCF7 breast = system: MCF7 breast
NCI/ADR-RES ovarian = system: NCI/ADR-RES ovarian
T-47D breast = system: T-47D breast
RPMI-8226 leukemia = system: RPMI-8226 leukemia
TK-10 renal = system: TK-10 renal
U251 CNS = system: U251 CNS
RXF 393 renal = system: RXF 393 renal
NCI-H522 lung = system: NCI-H522 lung
SF-295 CNS = system: SF-295 CNS
HS 578T breast = system: HS 578T breast
SN12C renal = system: SN12C renal
A498 renal = system: A498 renal
HCT-116 colon = system: HCT-116 colon
NCI-H460 lung = system: NCI-H460 lung
PC-3 prostate = system: PC-3 prostate
HOP-92 NSCLC = system: HOP-92 NSCLC
K-562 leukemia = system: K-562 leukemia
SK-MEL-28 melanoma = system: SK-MEL-28 melanoma
M14 melanoma = system: M14 melanoma
DU-145 prostate = system: DU-145 prostate

## CCN(CC)CCN(Cc1ccc(F)cc1)c1ccc(CO)c(Cl)c1
OVCAR-3 ovarian
  GI50: 14 µM
  TGI: 35.9 µM
SNB-75 CNS
  GI50: 12.2 µM
  TGI: > 94.8 µM
SK-OV-3 ovarian
  GI50: 2.96 µM
  TGI: 13.6 µM
ACHN renal
  GI50: 38.2 µM
  TGI: > 100 µM
SF-268 CNS
  GI50: 76.5 µM
  TGI: > 100 µM
NCI-H23 lung
  GI50: 35.4 µM
  TGI: > 100 µM
SK-MEL-2 melanoma
  GI50: 21.2 µM
  TGI: 44.4 µM
MDA-MB-435
  GI50: 23.5 µM
  TGI: 74.7 µM
MALME-3M melanoma
  GI50: 19.5 µM
  TGI: 37.3 µM
A549 NSCLC
  GI50: 2.42 µM
  TGI: 12.8 µM
UACC-257 melanoma
  GI50: 12 µM
  TGI: 27.7 µM
CCRF-CEM leukemia
  GI50: 61.7 µM
  TGI: > 100 µM
SW-620 colon
  GI50: 31.5 µM
  TGI: > 100 µM
KM12 colon
  GI50: 18.8 µM
  TGI: 75.9 µM
MOLT-4 leukemia
  GI50: 40.1 µM
  TGI: > 100 µM
MDA-MB-231 breast
  GI50: 12.2 µM
  TGI: 54.2 µM
COLO 205 colon
  GI50: 2.2 µM
  TGI: 5.54 µM
BT-549 breast
  GI50: > 89.6 µM
  TGI: > 100 µM
HOP-62 NSCLC
  GI50: 9.84 µM
  TGI: 63.3 µM
786-0 renal
  GI50: 30.2 µM
  TGI: > 100 µM
NCI-H226 lung
  GI50: 0.235 µM
  TGI: 0.713 µM
HT29 colon
  GI50: 18.6 µM
  TGI: 69.4 µM
HL-60(TB) leukemia
  GI50: 23.1 µM
  TGI: > 58.5 µM
UO-31 renal
  GI50: 19.5 µM
  TGI: 95.1 µM
LOX IMVI melanoma
  GI50: 21.1 µM
  TGI: 52.5 µM
CAKI-1 renal
  GI50: 1.85 µM
  TGI: 17.3 µM
OVCAR-8 ovarian
  GI50: 5.37 µM
  TGI: 75.4 µM
HCC-2998 colon
  GI50: 3.09 µM
  TGI: 12.8 µM
OVCAR-5 ovarian
  GI50: 3.25 µM
  TGI: 12.4 µM
HCT-15 colon
  GI50: 12.7 µM
  TGI: > 100 µM
IGROV1 ovarian
  GI50: 0.832 µM
  TGI: 3.61 µM
UACC-62 melanoma
  GI50: 6.07 µM
  TGI: 20.8 µM
OVCAR-4 ovarian
  GI50: 4.6 µM
  TGI: 35.2 µM
SNB-19 CNS
  GI50: > 100 µM
  TGI: > 100 µM
SR leukemia
  GI50: 23.5 µM
  TGI: 67.9 µM
SF-539 CNS
  GI50: 48.1 µM
  TGI: > 100 µM
SK-MEL-5 melanoma
  GI50: 16.3 µM
  TGI: 30.1 µM
MCF7 breast
  GI50: 4.55 µM
  TGI: 85.5 µM
NCI/ADR-RES ovarian
  GI50: 9.64 µM
  TGI: 50.2 µM
T-47D breast
  GI50: 7.05 µM
  TGI: > 62.6 µM
RPMI-8226 leukemia
  GI50: 23.8 µM
  TGI: 75.3 µM
TK-10 renal
  GI50: 4.86 µM
  TGI: 22.2 µM
U251 CNS
  GI50: 22.8 µM
  TGI: > 100 µM
RXF 393 renal
  GI50: 31.2 µM
  TGI: > 69.3 µM
NCI-H522 lung
  GI50: 27.9 µM
  TGI: 68.2 µM
SF-295 CNS
  GI50: 15.1 µM
  TGI: 49.9 µM
HS 578T breast
  GI50: 48.3 µM
  TGI: > 100 µM
SN12C renal
  GI50: 27.7 µM
  TGI: > 100 µM
A498 renal
  GI50: 1.55 µM
  TGI: 3.18 µM
HCT-116 colon
  GI50: 3.55 µM
  TGI: > 50.1 µM
NCI-H460 lung
  GI50: 1.17 µM
  TGI: 3.97 µM
PC-3 prostate
  GI50: 13.2 µM
  TGI: > 92.3 µM
HOP-92 NSCLC
  GI50: 2.66 µM
  TGI: 19.3 µM
K-562 leukemia
  GI50: 10.2 µM
  TGI: 41.5 µM
SK-MEL-28 melanoma
  GI50: 17.2 µM
  TGI: 32.9 µM
M14 melanoma
  GI50: 17.2 µM
  TGI: 35.2 µM
DU-145 prostate
  GI50: 9.97 µM
  TGI: > 73.8 µM

## COc1ccc(/C=C2\CN(Cc3cn(CCNc4ccnc5cc(Cl)ccc45)nn3)C/C(=C\c3ccc(OC)c(OC)c3)C2=O)cc1OC
OVCAR-3 ovarian
  GI50: 2.8 µM
  TGI: 8.57 µM
SNB-75 CNS
  GI50: 6.67 µM
  TGI: 40.7 µM
SK-OV-3 ovarian
  GI50: 4.66 µM
  TGI: 24.1 µM
ACHN renal
  GI50: 5.25 µM
  TGI: 19.9 µM
SF-268 CNS
  GI50: 3.36 µM
  TGI: 21.5 µM
NCI-H23 lung
  GI50: 7.45 µM
  TGI: 37.8 µM
SK-MEL-2 melanoma
  GI50: 3.88 µM
  TGI: 26.6 µM
MDA-MB-435
  GI50: 3.01 µM
  TGI: 19.1 µM
MALME-3M melanoma
  GI50: 2.78 µM
  TGI: 6.19 µM
A549 NSCLC
  GI50: 4.73 µM
  TGI: 40.4 µM
UACC-257 melanoma
  GI50: 4.8 µM
  TGI: 23.1 µM
CCRF-CEM leukemia
  GI50: 2.54 µM
  TGI: > 100 µM
SW-620 colon
  GI50: 2.32 µM
  TGI: 6.15 µM
KM12 colon
  GI50: 1.87 µM
  TGI: 3.6 µM
MOLT-4 leukemia
  GI50: 3.5 µM
  TGI: 40.2 µM
MDA-MB-231 breast
  GI50: 2.56 µM
  TGI: 7.68 µM
COLO 205 colon
  GI50: 1.99 µM
  TGI: 3.9 µM
BT-549 breast
  GI50: 2.16 µM
  TGI: 4.84 µM
HOP-62 NSCLC
  GI50: 3.9 µM
  TGI: 26.2 µM
786-0 renal
  GI50: 3.35 µM
  TGI: 12.4 µM
NCI-H226 lung
  GI50: 4.04 µM
  TGI: 21 µM
HT29 colon
  GI50: 3.13 µM
  TGI: 8.82 µM
HL-60(TB) leukemia
  GI50: 2.42 µM
  TGI: 9.37 µM
UO-31 renal
  GI50: 14.5 µM
  TGI: 31 µM
LOX IMVI melanoma
  GI50: 2.1 µM
  TGI: 4.82 µM
CAKI-1 renal
  GI50: 7.22 µM
  TGI: > 100 µM
OVCAR-8 ovarian
  GI50: 3.94 µM
  TGI: > 100 µM
HCC-2998 colon
  GI50: 1.96 µM
  TGI: 3.62 µM
OVCAR-5 ovarian
  GI50: 4.55 µM
  TGI: 21.5 µM
HCT-15 colon
  GI50: 6.87 µM
  TGI: 38.7 µM
IGROV1 ovarian
  GI50: 2.67 µM
  TGI: 7.09 µM
UACC-62 melanoma
  GI50: 2.14 µM
  TGI: 5.39 µM
OVCAR-4 ovarian
  GI50: 4.07 µM
  TGI: > 100 µM
SNB-19 CNS
  GI50: 3.59 µM
  TGI: > 100 µM
SR leukemia
  GI50: 2.04 µM
  TGI: > 100 µM
SF-539 CNS
  GI50: 2.58 µM
  TGI: 8.14 µM
SK-MEL-5 melanoma
  GI50: 1.72 µM
  TGI: 3.75 µM
MCF7 breast
  GI50: 3.3 µM
  TGI: 16 µM
NCI/ADR-RES ovarian
  GI50: > 100 µM
  TGI: > 100 µM
T-47D breast
  GI50: 5.05 µM
  TGI: > 100 µM
RPMI-8226 leukemia
  GI50: 3 µM
  TGI: 39 µM
TK-10 renal
  GI50: 4.96 µM
  TGI: 22 µM
U251 CNS
  GI50: 3.2 µM
  TGI: 27.7 µM
RXF 393 renal
  GI50: 1.81 µM
  TGI: 3.62 µM
NCI-H522 lung
  GI50: 2.24 µM
  TGI: 6.38 µM
SF-295 CNS
  GI50: 2.41 µM
  TGI: 6.1 µM
HS 578T breast
  GI50: 6.49 µM
  TGI: > 100 µM
SN12C renal
  GI50: 2.36 µM
  TGI: 6.79 µM
A498 renal
  GI50: 2.53 µM
  TGI: 13.2 µM
HCT-116 colon
  GI50: 1.95 µM
  TGI: 3.85 µM
NCI-H460 lung
  GI50: 2.22 µM
  TGI: 5.74 µM
PC-3 prostate
  GI50: 3.57 µM
  TGI: > 100 µM
K-562 leukemia
  GI50: 3.21 µM
  TGI: > 100 µM
SK-MEL-28 melanoma
  GI50: 2.29 µM
  TGI: 5.97 µM
M14 melanoma
  GI50: 3.35 µM
  TGI: 12.5 µM
DU-145 prostate
  GI50: 3.48 µM
  TGI: 11 µM
